Measured values reported in patent US11351178B2, “Selective HDAC6 inhibitors” (ITALFARMACO S.P.A., priority 2017, dated 2022).
Read-outs that look alike come from different tables or passages of the source.

What was measured:
[1] = system: peripheral blood mononuclear cells (PBMCs); assay: Cytotoxicity on PBMCs (CellTiter 96); assay type: cell-based; settings: PBMC, 72 h; read-out: PBMC TOXICITY (72 h)
In short: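 Mitochondrial-function readout (CellTiter 96 Aqueous One) after 72 h compound exposure, begun 24 h post-seeding. Dose ranges: 697 cells, 1 to 10000 nM at 2×10^4 cells/well; PBMCs, 1.5 to 10000 nM at 5×10^5 cells/well.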

[2] = molecular target: T1, HDAC5 (Homo sapiens, UniProt Q9UQL6); assay: Enzymatic test HDAC5; assay type: biochemical; settings: Table 3
T1 construct: purchased BPS 50005
T1 sequence (Q9UQL6 656-1122 limits assumed): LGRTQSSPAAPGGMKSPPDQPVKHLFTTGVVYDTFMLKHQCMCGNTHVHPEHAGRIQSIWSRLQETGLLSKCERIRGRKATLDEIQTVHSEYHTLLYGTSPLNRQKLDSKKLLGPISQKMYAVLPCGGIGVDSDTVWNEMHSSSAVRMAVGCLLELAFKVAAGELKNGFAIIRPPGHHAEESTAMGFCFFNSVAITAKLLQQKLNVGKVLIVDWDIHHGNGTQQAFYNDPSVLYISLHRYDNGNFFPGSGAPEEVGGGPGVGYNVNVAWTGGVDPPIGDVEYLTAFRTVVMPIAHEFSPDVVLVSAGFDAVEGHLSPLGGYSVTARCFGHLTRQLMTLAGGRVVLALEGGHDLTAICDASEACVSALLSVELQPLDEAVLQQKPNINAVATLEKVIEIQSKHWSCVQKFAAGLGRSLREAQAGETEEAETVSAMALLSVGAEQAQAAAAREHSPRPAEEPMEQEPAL
Experimental: (§1) After a period of incubation at 30° C. (incubation times vary for different isoforms and are shown in table 1) 25 μL of solution containing the substrate were added. As substrate, FLUOR DE LYS® deacetylase substrate (Enzo Life Sciences, cat #BML-K1104, FdL), FLUOR DE LYS®-Green substrate (Enzo Life Sciences, cat #BML-K1572 FdL_G) and trifluoroacetyl-L-lysine (Tfal)-2× concentrated solution in 25 mM Tris-HCl, pH 8, 130 mM NaCl 0.05% Tween-20 10% glycerol) were used. Following a reaction period at 30° C.

[3] = molecular target: T2, HDAC4 (Homo sapiens, UniProt P56524); assay: Enzymatic test HDAC4; assay type: biochemical; settings: Table 3
T2 construct: purchased BPS 50004
T2 sequence (P56524 627-1084 limits assumed): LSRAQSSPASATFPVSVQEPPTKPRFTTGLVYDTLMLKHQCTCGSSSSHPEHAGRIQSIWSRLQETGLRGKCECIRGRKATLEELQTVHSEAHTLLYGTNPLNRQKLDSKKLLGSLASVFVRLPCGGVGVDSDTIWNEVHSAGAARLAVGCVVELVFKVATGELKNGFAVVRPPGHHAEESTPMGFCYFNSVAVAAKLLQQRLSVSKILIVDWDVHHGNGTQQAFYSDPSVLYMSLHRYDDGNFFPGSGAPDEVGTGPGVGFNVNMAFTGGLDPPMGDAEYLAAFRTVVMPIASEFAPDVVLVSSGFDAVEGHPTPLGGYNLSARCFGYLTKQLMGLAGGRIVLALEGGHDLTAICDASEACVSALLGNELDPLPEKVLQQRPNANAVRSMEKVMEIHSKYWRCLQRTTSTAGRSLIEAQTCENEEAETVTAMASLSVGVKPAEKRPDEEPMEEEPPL
Experimental: as §1

[4] = molecular target: T3, HDAC1 (Homo sapiens, UniProt Q13547); assay: Enzymatic test HDAC1; assay type: biochemical; settings: Table 3
T3 construct: purchased BPS 50051
T3 sequence (Q13547 whole entry): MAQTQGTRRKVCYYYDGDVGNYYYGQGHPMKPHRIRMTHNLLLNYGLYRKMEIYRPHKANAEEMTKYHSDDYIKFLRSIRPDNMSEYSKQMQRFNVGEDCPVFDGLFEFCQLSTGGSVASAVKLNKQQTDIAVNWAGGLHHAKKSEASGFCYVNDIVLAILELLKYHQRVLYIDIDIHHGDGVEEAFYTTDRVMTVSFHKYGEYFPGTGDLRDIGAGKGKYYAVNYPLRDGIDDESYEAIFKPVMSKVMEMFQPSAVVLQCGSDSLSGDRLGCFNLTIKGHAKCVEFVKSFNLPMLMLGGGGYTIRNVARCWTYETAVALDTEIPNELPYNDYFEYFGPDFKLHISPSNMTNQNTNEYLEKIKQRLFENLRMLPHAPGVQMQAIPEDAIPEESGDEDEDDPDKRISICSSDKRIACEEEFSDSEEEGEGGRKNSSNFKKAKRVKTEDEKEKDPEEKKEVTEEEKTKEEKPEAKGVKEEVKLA

[5] = molecular target: T4, recombinant human HDAC3 (Homo sapiens, UniProt O15379); assay: Enzymatic screening on recombinant human HDAC3; assay type: biochemical; settings: Table 3
T4 construct: purchased BPS 50003
T4 sequence (O15379 whole entry): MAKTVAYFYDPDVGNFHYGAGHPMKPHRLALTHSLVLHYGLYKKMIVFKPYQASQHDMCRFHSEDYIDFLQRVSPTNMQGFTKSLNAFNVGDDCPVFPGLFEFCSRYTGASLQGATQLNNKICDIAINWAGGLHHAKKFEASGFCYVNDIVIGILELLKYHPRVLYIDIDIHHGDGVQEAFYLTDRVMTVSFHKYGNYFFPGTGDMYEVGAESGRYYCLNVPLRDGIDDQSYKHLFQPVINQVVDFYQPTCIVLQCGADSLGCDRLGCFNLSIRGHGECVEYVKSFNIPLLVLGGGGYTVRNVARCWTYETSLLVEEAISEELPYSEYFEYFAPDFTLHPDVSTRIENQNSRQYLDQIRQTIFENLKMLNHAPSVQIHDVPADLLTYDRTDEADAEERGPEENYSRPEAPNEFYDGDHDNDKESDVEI
T4 sequence (Q9Y618 395-489 partner limits assumed): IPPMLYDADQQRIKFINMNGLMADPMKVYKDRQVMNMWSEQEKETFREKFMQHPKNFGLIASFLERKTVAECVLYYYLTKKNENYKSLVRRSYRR
Experimental: Enzymatic activity on recombinant human HDAC6 and HDAC3 was evaluated (Table 2) for each synthesized compound.
as §1

[6] = molecular target: T5, HDAC8 (Homo sapiens, UniProt Q9BY41); assay: Enzymatic test HDAC8; assay type: biochemical; settings: Table 3
T5 construct: purchased BPS 50008
T5 sequence (Q9BY41 1-377): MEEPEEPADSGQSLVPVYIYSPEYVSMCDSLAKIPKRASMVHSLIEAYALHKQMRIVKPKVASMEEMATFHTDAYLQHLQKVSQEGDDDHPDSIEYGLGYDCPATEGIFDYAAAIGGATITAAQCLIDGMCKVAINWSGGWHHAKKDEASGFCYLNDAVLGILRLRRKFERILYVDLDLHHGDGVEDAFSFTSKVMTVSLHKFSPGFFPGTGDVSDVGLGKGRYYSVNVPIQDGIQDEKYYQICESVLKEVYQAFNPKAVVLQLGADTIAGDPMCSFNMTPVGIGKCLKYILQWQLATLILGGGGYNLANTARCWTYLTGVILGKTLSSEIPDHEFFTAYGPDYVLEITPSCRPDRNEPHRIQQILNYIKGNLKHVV

[7] = molecular target: T6, HDAC9 (Homo sapiens, UniProt Q9UKV0); assay: Enzymatic test HDAC9; assay type: biochemical; settings: Table 3
T6 construct: purchased BPS 50009
T6 sequence (Q9UKV0 1-1066 isoform Q9UKV0-5): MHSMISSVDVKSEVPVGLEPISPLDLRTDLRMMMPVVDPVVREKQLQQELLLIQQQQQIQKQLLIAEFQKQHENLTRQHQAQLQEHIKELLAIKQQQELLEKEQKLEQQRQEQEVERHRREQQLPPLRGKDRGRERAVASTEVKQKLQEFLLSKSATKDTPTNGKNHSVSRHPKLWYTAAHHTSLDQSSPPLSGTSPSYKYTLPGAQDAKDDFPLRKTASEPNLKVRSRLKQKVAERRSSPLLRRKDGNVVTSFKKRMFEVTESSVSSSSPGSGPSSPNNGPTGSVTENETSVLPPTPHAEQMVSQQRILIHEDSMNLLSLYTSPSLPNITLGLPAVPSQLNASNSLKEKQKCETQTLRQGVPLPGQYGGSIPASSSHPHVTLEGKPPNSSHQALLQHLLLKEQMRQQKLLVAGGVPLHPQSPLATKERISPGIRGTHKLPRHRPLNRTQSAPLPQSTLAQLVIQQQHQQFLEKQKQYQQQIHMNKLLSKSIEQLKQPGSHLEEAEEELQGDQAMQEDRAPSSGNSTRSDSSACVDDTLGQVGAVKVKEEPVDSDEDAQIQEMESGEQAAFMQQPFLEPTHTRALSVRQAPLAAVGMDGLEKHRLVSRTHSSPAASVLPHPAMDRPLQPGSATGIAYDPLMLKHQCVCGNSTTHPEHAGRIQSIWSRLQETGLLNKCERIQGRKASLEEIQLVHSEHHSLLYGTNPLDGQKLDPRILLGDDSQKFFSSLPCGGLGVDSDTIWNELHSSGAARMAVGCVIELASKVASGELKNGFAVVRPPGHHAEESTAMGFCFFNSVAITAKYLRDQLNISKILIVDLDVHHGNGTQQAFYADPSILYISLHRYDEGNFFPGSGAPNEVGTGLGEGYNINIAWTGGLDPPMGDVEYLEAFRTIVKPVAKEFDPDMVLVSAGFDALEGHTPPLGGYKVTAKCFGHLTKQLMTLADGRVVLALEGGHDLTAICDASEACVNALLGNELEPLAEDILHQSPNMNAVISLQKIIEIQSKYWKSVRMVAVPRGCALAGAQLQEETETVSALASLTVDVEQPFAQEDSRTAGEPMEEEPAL
Experimental: as §1

[8] = molecular target: T7, HDAC10 (Homo sapiens, UniProt Q969S8); assay: Enzymatic test HDAC10; assay type: biochemical; settings: Table 3
T7 construct: purchased BPS 50010
T7 sequence (Q969S8 1-669): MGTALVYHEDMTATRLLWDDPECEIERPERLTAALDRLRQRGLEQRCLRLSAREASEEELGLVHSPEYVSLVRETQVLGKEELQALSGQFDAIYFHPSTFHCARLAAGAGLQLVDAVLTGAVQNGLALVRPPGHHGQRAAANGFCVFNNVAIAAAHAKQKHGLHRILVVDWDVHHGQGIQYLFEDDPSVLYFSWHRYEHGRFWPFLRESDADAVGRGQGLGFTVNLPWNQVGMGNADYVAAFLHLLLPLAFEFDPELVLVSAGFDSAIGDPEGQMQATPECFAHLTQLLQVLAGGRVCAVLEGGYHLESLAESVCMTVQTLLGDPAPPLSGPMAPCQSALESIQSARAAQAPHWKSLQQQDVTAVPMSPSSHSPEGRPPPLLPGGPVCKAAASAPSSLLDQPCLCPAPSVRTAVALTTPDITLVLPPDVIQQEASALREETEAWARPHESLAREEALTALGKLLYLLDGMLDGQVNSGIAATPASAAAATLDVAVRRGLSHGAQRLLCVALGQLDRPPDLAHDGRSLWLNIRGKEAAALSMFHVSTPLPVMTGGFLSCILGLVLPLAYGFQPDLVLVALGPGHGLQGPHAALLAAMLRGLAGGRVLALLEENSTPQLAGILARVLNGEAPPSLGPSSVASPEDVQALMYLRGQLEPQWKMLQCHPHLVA

[9] = system: human PBMCs; assay: Mixed Lymphocytes Reaction (MLR) with human PBMCs (IFN-γ, TNF-α, IL-6); assay type: cell-based; settings: PBMC, 144 h, two-way MLR, 6 days, negative = induction; for inhibition at […]: 0.25 μM
Experimental: In order to study HDAC6 inhibitors ability to inhibit the activation of allogenic T CD4+ cells, a Mixed Lymphocytes Reaction (MLR or mixed lymphocyte culture, CLM) assay was performed. This is a reaction involving blast transformation of in vitro cultured lymphocytes in the presence of allogeneic lymphocytes. There is the so-called “two-way” reaction wherein the two lymphocyte populations stimulate each other to proliferate, and the so-called “one way” reaction, wherein the proliferation of one of the two populations is inhibited by mitomycin C or irradiation, these cells provide proliferation stimulus (stimulator) to the so-called “responder” cells.
Human peripheral blood mononuclear cells (PBMCs) used in MLR were obtained by Ficoll gradient separation from Buffy Coat of healthy donors.
We used a two-way MLR. The cells from the two donors were plated at 1:1 ratio (allogenic stimulation) to the final concentration of 2×10^5 per well in U-bottom 96 well plates in RPMI 1640 medium with 10% FBS and antibiotics. As a control we individually plated the cells from each donor (singenic stimulus). The experiment for each inhibitor was set in deduplicate for allogeneic stimuli and in quintuplicate for singenic stimuli. The cells were cultured for 6 days in an incubator at 37° C.
After 6 days the effect of the test compounds was evaluated by measuring the production of pro-inflammatory cytokines recognized to be characteristics of this assay.
For this purpose, the culture supernatant was harvested and used for IFN-γ, TNF-α and IL-6 inflammatory cytokine assay.
The JAK inhibitor ruxolitinib was used as the active reference compound in the test.
Values in the table indicate the inhibition percentages. Negative values indicate an induction.

[10] = read-out: MLR IFN-γ inhibition percentage
[11] = read-out: MLR IL-6 inhibition percentage
[12] = read-out: MLR TNF-α inhibition percentage

## COc1ccc(C(=O)N[C@@H](Cc2cscn2)c2nc(Cc3ccc(C(=O)NO)cc3)no2)cc1OC [comp. 1, (S)—N-(1-(3-(4-(hydroxycarbamoyl)benzyl)-1,2,4-oxadiazol-5-yl)-2-(thiazol-4-yl)ethyl)-3,4-dimethoxybenzamide]
[1]
  IC50: 7 µM
[2]
  IC50: 12 µM
[3]
  IC50: 10.1 µM
[4]
  IC50: 1.93 µM
[5]
  IC50: 2.87 µM
[6]
  IC50: 0.71 µM
[7]
  IC50: 5.87 µM
[8]
  IC50: 2.48 µM

## Cn1c(Sc2c(F)cc(C(=O)NO)cc2F)nnc1-c1cccc2ccccc12 [comp. 2, 3,5-difluoro-N-hydroxy-4-((4-methyl-5-(naphthalen-1-yl)-4H-1,2,4-triazol-3-yl)thio)benzamide]
[1]
  IC50: > 1 µM
[2]
  IC50: 1.85 µM
[3]
  IC50: 1.46 µM
[4]
  IC50: 11.6 µM
[5]
  IC50: 8.65 µM
[7]
  IC50: 0.592 µM
[8]
  IC50: 14.1 µM

## O=C(NO)c1ccc(Cn2nnnc2-c2cccs2)cc1 [comp. 8, N-hydroxy-4-((5-(thiophen-2-yl)-1H-tetrazol-1-yl)methyl)benzamide]
[1]
  IC50: 3.5 µM
[9]; [10]
  inhibition at […]: 24.1%
  inhibition at 0.5 µM: 35.3%
  inhibition at 1 µM: 15.7%
[9]; [11]
  inhibition at […]: -33.1%
  inhibition at 0.5 µM: -13%
  inhibition at 1 µM: -1.5%
[9]; [12]
  inhibition at […]: 54.7%
  inhibition at 0.5 µM: 35.1%
  inhibition at 1 µM: 28.1%

## O=C(NO)c1ccc(Cn2nnc(-c3ccc(C(F)(F)F)cc3)n2)cc1 [comp. 23, 4-[[5-[4-(trifluoromethyl)phenyl]tetrazol-2-yl]methyl]benzenecarbohydroxamic acid]
[2]
  IC50: 4.81 µM
[3]
  IC50: 4.24 µM
[4]
  IC50: 0.616 µM
[5]
  IC50: 0.568 µM
[6]
  IC50: 2.83 µM
[7]
  IC50: 2.69 µM
[8]
  IC50: 1.1 µM

## Nn1c(Sc2ccc(C(=O)NO)cc2)nnc1-c1ccc(OC(F)F)cc1 [comp. 28, 4-[[4-amino-5-[4-(difluoromethoxy)phenyl]-1,2,4-triazol-3-yl]sulfanyl]benzenecarbohydroxamic acid]
[2]
  IC50: 1.17 µM
[3]
  IC50: 1.33 µM
[4]
  IC50: 0.426 µM
[5]
  IC50: 0.373 µM
[6]
  IC50: 0.27 µM
[7]
  IC50: 0.328 µM
[8]
  IC50: 0.636 µM

## O=C(NO)c1ccc(Cn2nnc(-c3ccccc3F)n2)cc1 [comp. 33, 4-[[5-(2-fluorophenyl)tetrazol-2-yl]methyl]benzenecarbohydroxamic acid]
[2]
  IC50: 2.36 µM
[3]
  IC50: 1.91 µM
[4]
  IC50: 0.232 µM
[5]
  IC50: 0.138 µM
[6]
  IC50: 0.413 µM
[7]
  IC50: 0.948 µM
[8]
  IC50: 0.441 µM

## O=C(NO)c1ccc(Cn2nnc(-c3cccs3)n2)cc1 [comp. 50, 4-[[5-(2-thienyl)tetrazol-2-yl]methyl]benzenecarbohydroxamic acid]
[2]
  IC50: 1.95 µM
[3]
  IC50: 1.95 µM
[4]
  IC50: 0.254 µM
[5]
  IC50: 0.154 µM
[6]
  IC50: 0.455 µM
[7]
  IC50: 0.8 µM
[8]
  IC50: 0.398 µM

## O=C(NO)c1ccc(Cc2nnc(-c3ccc(F)cc3F)o2)cc1 [comp. 58, 4-((5-(2,4-difluorophenyl)-1,3,4-oxadiazol-2-yl)methyl)-N-hydroxybenzamide]
[2]
  IC50: 3.69 µM
[3]
  IC50: 3.93 µM
[4]
  IC50: 0.364 µM
[5]
  IC50: 0.206 µM
[6]
  IC50: 1 µM
[7]
  IC50: 2.17 µM
[8]
  IC50: 0.591 µM

## CN(C)S(=O)(=O)c1cccc(-c2nnn(Cc3ccc(C(=O)NO)cc3)n2)c1 [comp. 59, 4-[[5-[3-(dimethylsulfamoyl)phenyl]tetrazol-2-yl]methyl]benzenecarbohydroxamic acid]
[2]
  IC50: 4.12 µM
[3]
  IC50: 2.49 µM
[4]
  IC50: 0.353 µM
[5]
  IC50: 0.448 µM
[6]
  IC50: 0.547 µM
[7]
  IC50: 1.54 µM
[8]
  IC50: 0.542 µM

## O=C(NO)c1cc(F)c(Cn2nnc(-c3scc4c3OCCO4)n2)c(F)c1 [comp. 79, 4-[[5-(2,3-dihydrothieno[3,4-b][1,4]dioxin-5-yl)tetrazol-2-yl]methyl]-3,5-difluoro-benzenecarbohydroxamic acid]
[1]
  IC50: 3 µM
[2]
  IC50: 0.687 µM
[3]
  IC50: 0.541 µM
[4]
  IC50: 2.32 µM
[5]
  IC50: 1.65 µM
[9]; [10]
  inhibition at 1 µM: 27.5%
[9]; [11]
  inhibition at 1 µM: 38.6%
[9]; [12]
  inhibition at 1 µM: 50.9%
[7]
  IC50: 0.514 µM
[8]
  IC50: 1.91 µM

## CN(C)c1cccc(-c2nnc(Sc3c(F)cc(C(=O)NO)cc3F)n2C)c1 [comp. 80, 4-[[5-[3-(dimethylamino)phenyl]-4-methyl-1,2,4-triazol-3-yl]sulfanyl]-3,5-difluoro-benzenecarbohydroxamic acid]
[2]
  IC50: 1.28 µM
[3]
  IC50: 0.731 µM
[4]
  IC50: 4.64 µM
[5]
  IC50: 1.87 µM
[6]
  IC50: 0.548 µM
[7]
  IC50: 0.426 µM
[8]
  IC50: 5.58 µM

## Cn1c(Sc2c(F)cc(C(=O)NO)cc2F)nnc1C(c1ccccc1)c1ccccc1 [comp. 98, 4-[(5-benzhydryl-4-methyl-1,2,4-triazol-3-yl)sulfanyl]-3,5-difluoro-benzenecarbohydroxamic acid]
[2]
  IC50: 2.66 µM
[3]
  IC50: 1.61 µM
[4]
  IC50: 1.01 µM
[5]
  IC50: 8.93 µM
[6]
  IC50: 0.186 µM
[7]
  IC50: 0.844 µM
[8]
  IC50: 1.48 µM
